Results from US8940497B2, “Enzyme regulating ether lipid signaling pathways” (The Scripps Research Institute, priority 2006, dated 2015).

Key:
Assay type in all cases: cell-based, human
[1] = test system: SKOV-3 cells; test: Targeted LC-MS analysis of lipid levels in inhibitor-treated cells; settings: compared to DMSO controls
Description: (§1) The following LC-MS conditions were used for analysis of cancer cell metabolomes. Cell pellets were harvested by scraping, isolated by centrifugation at 1,400×g, and dounce-homogenized in 4 mL of a 2:1:1 mixture of chloroform:methanol:Tris buffer (50 mM Tris*HCl, pH 8.0). Samples that were analyzed by targeted LC-MS were homogenized in the presence of the following synthetic standards: C15:0 MAG (50 pmol), C17:0 LPA (50 pmol), and 13C-C16:0 MAGE (25 pmol). Organic and aqueous layers were separated by centrifugation at 1,260×g for 5 min. The organic layer was then removed, dried under a stream of N2, and re-solubilized in 100 μL of chloroform, of which 30 μL was analyzed by LC-MS. Extraction of LPA was performed by acidifying the remaining aqueous layer to a final concentration of 5% formic acid, followed by the addition of 2 mL of chloroform. The mixture was vortexed, the organic layer removed, concentrated to dryness, and dissolved in 100 μL of chloroform, of which 30 μL was analyzed by LC-MS.
(§2) LC-MS analysis was performed using an Agilent 1100 LC-MSD SL instrument. […] Mobile phase A was composed of a 95:5 ratio of water:methanol and mobile phase B consisted of 2-propanol, methanol, and water in a 60:35:5 ratio. Solvent modifiers such as 0.1% formic acid and 0.1% ammonium hydroxide were used to assist ion formation as well as improve the LC resolution in both positive and negative ionization modes respectively. The flow rate for each run started at 0.1 mL/min for 5 min, to alleviate backpressure associated with injecting chloroform. The gradient started at 0% B and increased linearly to 100% B over the course of 40 min with a flow rate of 0.4 mL/min, followed by an isocratic gradient of 100% B for 7 min before equilibrating for 8 min at 0% B with a flow rate of 0.5 mL/min.
MS analysis was performed with an electrospray ionization (ESI) source. The capillary voltage was set to 3.0 kV and the fragmentor voltage to 100V. The drying gas temperature was 350° C., the drying gas flow rate was 10 L/min, and the nebulizer pressure was 35 psi. Untargeted data was collected using a mass range of 200-1000 Da and exported as common data format (.CDF) files for computational analysis. Differentially expressed metabolites between sample pairs were identified using the XCMS analyte profiling software (http://metlin/download) that aligns mass peaks from two LC-MS traces and quantifies the relative intensities of global metabolites (5). Significant inhibitor-sensitive peak changes were confirmed by manual quantification using the area under the peak normalized to total ion current. Targeted LC-MS measurements were made using selected ion monitoring (SIM). Peaks were quantified by measuring the area under the peak and normalized to an internal standard (C15:0 MAG) or endogenous lipid (palmitic acid). Absolute MAGE levels were estimated by comparison to a 13C-MAGE standard.
Human ovarian cancer cell lines were obtained form the National Cancer Institute's Developmental Therapeutics Program. The melanoma lines C8161 and MUM-2B were obtained form Mary Hendrix. Cells were maintained in RPMI medium 1640 with 10% (v/v) fetal calf serum at 37° C. in a humidified atmosphere of 5% CO2/95% air. At approximately 80% confluency, cells were trypsinized, counted with the aid of a hemocytometer, and 2.5×10^6 cells were plated in 6 cm dishes. 20 h after plating cells were washed twice with PBS and supplemented with serum free RPMI containing 0.5% BSA (Sigma)(BSA-RPMI) with AS115 (0.01-10 μM) or vehicle (DMSO) at 0.1%. After incubation for 4 h the cells were harvested and analyzed by ABPP or LC-MS.
By extension, the m/z 345 and 347 metabolites were interpreted to represent the C18:1 and C18:0 MAGEs, respectively. […] MAGE levels were measured by targeted LC-MS analysis of SKOV-3 cells treated with AS115 (5 μM) or DMSO for 4 h using a 13C-C16:0 MAGE internal standard. Values are represented as pmol/10^6 cells. […]

[2] = test system: MUM-2B melanoma cells; test: LC-MS MAGE lipid levels in inhibitor-treated melanoma cells; settings: compared to DMSO controls
Description: as §1, §2
(§3) MS analysis was performed with an electrospray ionization (ESI) source. […] Differentially expressed metabolites between sample pairs were identified using the XCMS analyte profiling software (http://metlin/download) that aligns mass peaks from two LC-MS traces and quantifies the relative intensities of global metabolites (5). Significant inhibitor-sensitive peak changes were confirmed by manual quantification using the area under the peak normalized to total ion current. […] Peaks were quantified by measuring the area under the peak and normalized to an internal standard (C15:0 MAG) or endogenous lipid (palmitic acid). […]
(§4) Human ovarian cancer cell lines were obtained form the National Cancer Institute's Developmental Therapeutics Program. […] At approximately 80% confluency, cells were trypsinized, counted with the aid of a hemocytometer, and 2.5×10^6 cells were plated in 6 cm dishes. […] After incubation for 4 h the cells were harvested and analyzed by ABPP or LC-MS. […]

[3] = test system: C8161 melanoma cells; test: as above; settings: compared to DMSO controls
Description: as §1, §2, §3, §4

[4] = test system: shKIAA1363 cells; test: Cell migration assay (Transwell) with shKIAA1363 cells; settings: concentrations up to 1 μM, 18 h
Description: Migration assays were performed in Transwell chambers with […] pore-sized membranes coated with 10 μg/ml collagen overnight at 4° C. (Corning). Twenty-four hours before the start of the migration assay, cancer cell lines were plated at concentration of 2.25×10^6 cells per 10 cm dish. At the start of the migration assay, cells were harvested by washing two times with PBS and then serum starved in medium containing 0.05% BSA for 4 hours. Serum starved cells were trypsinized, spun at 1400 rpm for 3 minutes, resuspended, and counted. Cells were diluted to a density of 100,000 cells/ml in medium contain 0.05% BSA, and then 250 μl were placed in the upper chamber of the transwells. Either DMSO, alkyl LPA (10 nM), alkyl LPC (10-1000 nM), or MAGE (10-1000 nM) in medium containing 0.05% BSA was added in the lower chamber, and cells were allowed to migrate for 18 h. The filters were then fixed and stained with Diff-Quik (Dade Behring). Cells that had not migrated through the chamber were removed with a cotton ball. The cells which migrated were counted at a magnification of 40× and from each migration chamber 6 fields were independently counted.
The decrease in tumorigenic potential of shKIAA1363 cells was not associated with a change in proliferation potential in vitro (FIG. 11). shKIAA1363 cells were, however, impaired in their in vitro migration capacity compared to control cells (FIG. 9B). […]

Compound | Levels of MAGE lipids [1] | Levels of MAGE lipids [2] | Levels of MAGE lipids [3] | Effect on cancer cell migration [4]
NC(=O)c1cccc(-c2cccc(OC(=O)NC3CCCCC3)c2)c1 [URB597, reference compound] | did not affect | did not affect | did not affect | –
monoalkylglycerol ether [MAGE] | – | – | – | Neither MAGE nor alkyl-LPC impacted cancer cell migration
